Source: PMC8136485, “Were Ancestral Proteins Less Specific?” (Molecular Biology and Evolution, 2021)
Ends that are not written are not given here. * marks the point of attachment. 5FAM = O=C1OC2(c3ccc(O)cc3Oc3cc(O)ccc32)c2ccc(C(=O)*)cc21

Legend:
ancA5/A6 = assay: Fluorescence polarization, direct titration of probe peptide with protein; assay type: binding; conditions: 0.03 μM probe, 0 to ≈200 μM protein, 2 mM CaCl2, then 5 mM EDTA added
Source text: (§1) To mimic the phage display experiment, we measured binding by displacement of a fluorescently labeled probe peptide. For our probe, we used the competitor peptide from the phage display experiment with the addition of an N-terminal 5-FAM fluorophore (fig. 3A). […] We could then measure fluorescence polarization of the probe peptide as a function of increasing concentrations of unlabeled peptide. A peptide that binds at the same site as the probe will displace the probe and thereby change the fluorescence polarization.
(§2) We fit the curve to a single-site binding model: (6) P([protein])∼ΔPmax[protein]/[protein]+KD,probe+P0 where P0 is the polarization of the peptide in the absence of protein, ΔPmax is the change in signal from unbound peptide to bound to the protein, and KD,probe is the probe dissociation constant. After recording the titration curve in the presence of CaCl2, we added 5 mM EDTA to all wells and remeasured the curve.
(§3) Fig S6: Binding of /f_luorescent probe peptide is calcium dependent. Panel show measured /f_luorescence anisotropy for the peptide 5FAM- GFDWR […] in the presence of […]
(§4) increasing protein concentration. Probe concentration was 0.03 uM. Proteins are hA5 (purple), hA6 (orange), ancA5/A6 (green), and human S100A9 (black). S100A9 is a negative control, because it is evolutionarily distant from hA5 and hA6 and would thus not be expec ted to bind to the probe […]

hA5 = assay: as above; assay type: binding, human; conditions: 0.03 μM probe, 0 to ≈200 μM protein, 2 mM CaCl2, then 5 mM EDTA added
Source text: as §1, §2, §3, §4

hA6 = assay: as above; assay type: binding, human; conditions: 0.03 μM probe, 0 to ≈200 μM protein, 2 mM CaCl2, then 5 mM EDTA added
Source text: as §1, §2, §3, §4

hA5 (human S100A5) [1] = molecular target: T1, hA5 (human S100A5) (Homo sapiens, UniProt P33763); assay: Fluorescence polarization, displacement of 5FAM probe peptide; assay type: binding; conditions: displacement of 5FAM-labelled probe, 50 mM TES, 100 mM NaCl, 0.01% Tween-20, pH 7.4, 2.4-4.2 µM protein with equal probe, technical triplicate, corrected for probe
T1 construct: His tag with TEV protease cleavage site (N, cleaved yes); made in house; host or cells: Rosetta E. coli (DE3) pLysS
T1 sequence (P33763 1-92): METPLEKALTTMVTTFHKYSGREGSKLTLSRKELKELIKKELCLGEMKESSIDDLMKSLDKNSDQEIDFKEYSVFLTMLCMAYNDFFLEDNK
Source text: as §1
(§5) We did the fluorescence polarization experiments in 50 mM TES, 100 mM NaCl, and 0.01% Tween-20, pH 7.4, thus matching the phage display experimental buffer. We ordered all nine test peptides and the probe peptide in milligram quantities at 95% purity (Genscript). For the probe peptide, we used “5FAM-[…],” where 5FAM indicates an N-terminally linked 5-carboxyfluorescein moiety. […] The only exception was […], which we dissolved in ddH2O .
(§6) We measured fluorescence anisotropy using a SpectraMax i3 plate reader (Molecular Devices) with 96-well black plates (Corning). Prior to reading each plate, we shook for 5 s and then acquired with 500 ms integration time. Prior to the set of experiments, we optimized detector height and calibrated the plate’s xy position to maximize signal. We then kept this calibration throughout the set of experiments. For each experiment, we recorded both vertical (vv) and horizontal (vh) emission channels and then converted to arbitrary polarization units by: (5) R=vv−Gvh/vv+2Gvh with G set to 1.0. Titrations were done by serial dilution through conditions on individual plates, followed by measurement of all wells. We did all measurements in technical triplicate. We used custom software to programmatically remove technical replicate outliers.
(§7) For our production experiments, we added increasing amounts of competitor peptide to wells with between 2.4 and 4.2 µM protein (monomer). Each well also contained probe peptide at the same concentration as the protein. We selected these concentrations to maximize the amount of signal change upon addition of competitor peptide KD,probe . We calculated the expected signal change by: (7) ΔPpredicted=ΔPmax×[MX]/[X]T where ΔPmax=0.135 (as determined by our initial fits to extract probe peptide KD,probe ), [X]T was the total probe concentration, and [MX] was the concentration of the probe/protein complex prior to adding competitor peptide. We calculated [MX] by: (8) [MX]=([X]T+[M]T+KD,probe)±([X]T+[M]T+KD,probe)^2−4[X]T[M]T/2 where [M]T was the total protein concentration.
(§8) Prior to fitting a binding model to each curve, we converted it from polarization to fractional saturation. We did so by first fitting the single-site binding model to the data to obtain an estimate of the initial polarization (P0) for the protein/peptide pair. We then subtracted this value of P0 to obtain a baseline-subtracted polarization. We then divided the baseline-subtracted polarization by ΔPpredicted , yielding a fractional saturation (θ).
(§9) We then fit a reduced form of the single-site binding model to the data: (9) θ=[protein]/[protein]+KD,apparent
(§10) Finally, we corrected the resulting KD,apparent to account for the effect of the competitor peptide ([Hulme and Trevethick 2010]): (10) KD,peptide=KD,apparent/1+[X]T*(1−δ/2)/KD,probe+δ/(1−δ) where [X]T is the total probe peptide concentration and δ=[MX]/[X]T .

hA6 (human S100A6) [2] = molecular target: T2, hA6 (human S100A6) (Homo sapiens, UniProt P06703); assay: as above; assay type: binding; conditions: displacement of 5FAM-labelled probe, 50 mM TES, 100 mM NaCl, 0.01% Tween-20, pH 7.4, 2.4-4.2 µM protein with equal probe, technical triplicate, corrected for probe
T2 construct: His tag with TEV protease cleavage site (N, cleaved yes); made in house; host or cells: Rosetta E. coli (DE3) pLysS
Source text: as §1, §5, §6, §7, §8, §9, §10

hA5 (human S100A5) [3] = molecular target: T1, hA5 (human S100A5); assay: Quantitative phage display enrichment with/without competitor peptide; assay type: binding; conditions: E=−ln(cnon-competitor/ccompetitor), panning in 2 mM Ca2+, elution 5 mM EDTA, 20 μM competitor, E≤−1.5 taken as binder
Source text: (§11) We next set out to measure the binding of S100 proteins to this library of random 12-mer peptides. The S100 peptide-binding interface is only exposed upon Ca^2+ -binding (fig. 1A); therefore, we performed phage panning experiments in the presence of saturating Ca^2+ and then eluted the bound phage using saturating ethylenediaminetetraacetic acid (EDTA) (fig. 2B). After this panning step, the population of enriched phage particles will be a mixture of those that bind at the site of interest and those that bind adventitiously (blue and purple phage, fig. 2B) ([Sidhu et al. 2000]; [Willats 2002]). To separate these populations, we repeated the panning experiment in the presence of a saturating concentration of competitor peptide known to bind at the site of interest ([…], fig. 2C) ([Wheeler et al. 2018]). This should lower the enrichment of peptides that bind at the site of interest, while allowing any adventitious interactions to remain. By comparing the competitor and noncompetitor pools, we can distinguish between specific and adventitious binders.
(§12) After panning, we sequenced the resulting phage pools using Illumina sequencing. […] We estimated changes in the frequencies of peptides between samples with and without competitor peptide (supplementary fig. S3, Supplementary Material online). For each peptide, we determined E: (1) E=−ln(cnon-competitor/ccompetitor) where ccompetitor and cnon-competitor are the sequence counts for the peptide recovered from parallel Ca^2+/EDTA panning experiments done with and without competitor peptides.
(§13) If E < 0, the competitor peptide interferes with the Ca^2+ -dependent enrichment of the peptide. […] If E > 0, the competitor peptide improves Ca^2+ -dependent enrichment of the phage peptide. This could occur if the phage peptide binds more favorably to the S100/competitor peptide complex than the S100 alone. […]
(§14) Phage display experiments were performed using the PhD-12 peptide phage display kit (NEB). […] Eluates were tittered to quantify eluted phage as follows. […]

[4] = system: ancA5/A6 (reconstructed last common ancestor of S100A5 and S100A6); assay: as above; assay type: binding; conditions: ancA5/A6 (aA5A6 in csv); E=−ln(cnon-competitor/ccompetitor); panning in 2 mM Ca2+, elution 5 mM EDTA; 20 μM competitor; E≤−1.5 taken as binder
Source text: as §11, §12, §13, §14

hA6 (human S100A6) [5] = molecular target: T2, hA6 (human S100A6); assay: as above; assay type: binding; conditions: E=−ln(cnon-competitor/ccompetitor), panning in 2 mM Ca2+, elution 5 mM EDTA, 20 μM competitor, E≤−1.5 taken as binder
Source text: as §11, §12, §13, §14

| Substance | Kd (hA5 (human S100A5) [1]) [µM] | Kd (hA6 (human S100A6) [2]) [µM] | other results |
| --- | --- | --- | --- |
| 5FAM-GFDWRWGMEALTGGGSAE [probe] |  |  | calcium dependence of probe binding (ancA5/A6): bound in a calcium-dependent manner; calcium dependence of probe binding (hA5): bound in a calcium-dependent manner; calcium dependence of probe binding (hA6): bound in a calcium-dependent manner |
| EGLDLMSILELIGGSAE [phage_ctl_0] | 47.2 | 48.7 |  |
| EQPLLKYLQLMRGGSAE [phage_ctl_5] | 85.8 |  |  |
| GEVTNYGYLVDQGGSAE [phage_ctl_7] |  | 42.7 |  |
| GWLEQYFSRTADGGSAE [phage_ctl_2] | 18.6 | 14.6 |  |
| HVQWRDRNVIEWGGSAE [phage_ctl_6] | 123 |  |  |
| RHGFLQDILFKLGGSAE [phage_ctl_1] | 36.4 | 61.7 |  |
| SGPSDWLHKGVLGGSAE [phage_ctl_9, phage display 12-mer peptide with C-terminal flank, ordered as synthetic test peptide] |  |  | E (enrichment) (hA5 (human S100A5) [3]): 0.5882; E (enrichment) [4]: 5.052; E (enrichment) (hA6 (human S100A6) [5]): 0.5131 |
| SRQTTSTHEWVVGGSAE [phage_ctl_4] |  | 102 | Kd (KD,peptide) (hA5 (human S100A5) [1]): No model could be reliably fit |
| SSSTYPGFRQSTGGSAE [phage_ctl_8] |  | 202 |  |
